{"source": "patent US12370166B2", "about": "“Pentadecanoylcarnitine for treatment of conditions related to the quality of aging and longevity” (EPITRACKER, INC., priority 2021, dated 2025)", "key": {"4H cell system": {"system": "4H cell system", "assay": "Human primary cell phenotypic profiling, 4H cell system (autoimmunity, allergy, asthma)", "format": "cell-based", "details": "6.7 μM stated for pentadecanoylcarnitine, NS = not significant", "method": "(§1) Methods for this human primary cell phenotypic profiling study were those previously described (Venn-Watson, S., Lumpkin, R., Dennis, E. A. Efficacy of dietary odd-chain saturated fatty acid pentadecanoic acid parallels broad associated health benefits in humans: could it be essential? Sci Rep 10:8161 (2020)). Significant activities of pentadecanoylcarnitine were those that were equal to or greater than 0.1|log 10| at 6.7 μM. Biomarkers with significant changes caused by pentadecanoylcarnitine were compared with results from the same study using pentadecanoic acid (C15:0)."}, "LPS cell system": {"system": "LPS cell system", "assay": "Human primary cell phenotypic profiling, LPS cell system (chronic inflammation, cardiovascular disease)", "format": "cell-based", "details": "6.7 μM stated for pentadecanoylcarnitine", "method": "as §1"}, "SAg cell system": {"system": "SAg cell system", "assay": "Human primary cell phenotypic profiling, SAg cell system (chronic inflammation, autoimmune disease)", "format": "cell-based", "details": "6.7 μM stated for pentadecanoylcarnitine", "method": "as §1"}, "BE3C cell system": {"system": "BE3C cell system", "assay": "Human primary cell phenotypic profiling, BE3C cell system (COPD, lung inflammation)", "format": "cell-based", "details": "6.7 μM stated for pentadecanoylcarnitine", "method": "as §1"}, "CASM3C cell system": {"system": "CASM3C cell system", "assay": "Human primary cell phenotypic profiling, CASM3C cell system (cardiovascular inflammation, restenosis)", "format": "cell-based", "details": "6.7 μM stated for pentadecanoylcarnitine", "method": "as §1"}, "HDF3CGF cell system": {"system": "HDF3CGF cell system", "assay": "Human primary cell phenotypic profiling, HDF3CGF cell system (fibrosis, chronic inflammation)", "format": "cell-based", "details": "6.7 μM stated for pentadecanoylcarnitine", "method": "as §1"}, "KF3CT cell system": {"system": "KF3CT cell system", "assay": "Human primary cell phenotypic profiling, KF3CT cell system (dermatitis, psoriasis)", "format": "cell-based", "details": "6.7 μM stated for pentadecanoylcarnitine", "method": "as §1"}, "MyoF cell system": {"system": "MyoF cell system", "assay": "Human primary cell phenotypic profiling, MyoF cell system (wound healing, matrix remodeling, fibrosis)", "format": "cell-based", "details": "6.7 μM stated for pentadecanoylcarnitine", "method": "as §1"}, "/IMphg cell system": {"system": "/IMphg cell system", "assay": "Human primary cell phenotypic profiling, /IMphg cell system (chronic inflammation, restenosis, cardiovascular disease)", "format": "cell-based", "details": "6.7 μM stated for pentadecanoylcarnitine", "method": "as §1"}, "Cannabinoid receptor 2": {"biological_target": "Cannabinoid receptor 2 (Homo sapiens, UniProt P34972)", "sequence (P34972 whole entry)": "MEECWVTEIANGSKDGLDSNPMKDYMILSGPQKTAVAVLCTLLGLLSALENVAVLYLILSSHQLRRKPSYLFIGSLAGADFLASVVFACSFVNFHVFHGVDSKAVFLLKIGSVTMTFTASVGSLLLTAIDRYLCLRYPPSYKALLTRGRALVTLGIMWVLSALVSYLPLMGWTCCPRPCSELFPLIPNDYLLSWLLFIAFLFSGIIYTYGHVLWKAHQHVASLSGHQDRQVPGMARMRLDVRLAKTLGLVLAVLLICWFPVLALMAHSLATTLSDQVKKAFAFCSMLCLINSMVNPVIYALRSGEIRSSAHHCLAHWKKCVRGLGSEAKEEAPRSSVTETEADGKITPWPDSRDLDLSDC", "assay": "Receptor-based pharmacological activity, agonist", "format": "biochemical", "details": "for EC50: read-out: RC50 (EC50); for Pharmacological activity at cannabinoid receptor 2: at approximately 1 to 20 μM", "method": "(§2) Methods for this study have been previously described (Venn-Watson, S., Lumpkin, R., Dennis, E. A. Efficacy of dietary odd-chain saturated fatty acid pentadecanoic acid parallels broad associated health benefits in humans: could it be essential? Sci Rep 10:8161 (2020)). Significant activities of pentadecanoylcarnitine were those tagged as having maximum pharmacological activities that were greater than or equal to 70% that of the internal control between the concentrations of 1 to 20 μM. Significant pharmacological activities caused by pentadecanoylcarnitine were compared with results from the same assays using pentadecanoic acid (C15:0)."}, "[1]": {"biological_target": "T1, Cholinergic receptor muscarinic 2 (Homo sapiens, UniProt P08172)", "T1 sequence (P08172 1-466)": "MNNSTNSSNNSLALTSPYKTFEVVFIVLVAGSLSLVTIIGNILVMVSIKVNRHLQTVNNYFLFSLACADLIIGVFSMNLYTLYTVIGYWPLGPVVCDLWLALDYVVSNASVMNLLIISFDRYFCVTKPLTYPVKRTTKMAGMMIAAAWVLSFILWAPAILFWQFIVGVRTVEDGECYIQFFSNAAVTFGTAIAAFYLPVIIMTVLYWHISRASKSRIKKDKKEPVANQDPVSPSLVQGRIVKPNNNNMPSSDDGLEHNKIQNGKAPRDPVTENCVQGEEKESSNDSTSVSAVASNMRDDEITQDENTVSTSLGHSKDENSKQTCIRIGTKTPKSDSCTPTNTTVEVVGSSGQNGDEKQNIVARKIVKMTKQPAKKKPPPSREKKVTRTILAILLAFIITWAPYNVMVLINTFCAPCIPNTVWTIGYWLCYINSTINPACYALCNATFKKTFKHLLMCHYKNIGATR", "assay": "Receptor-based pharmacological activity, agonist", "format": "biochemical", "details": "positive control Acetylcholine chloride; for EC50: read-out: RC50 (EC50)", "method": "as §2"}, "[2]": {"system": "peroxisome proliferator-activated receptor (PPAR) α/δ", "details": "cited from earlier work"}, "[3]": {"system": "AMP-activated protein kinase (AMPK)", "details": "cited from earlier work"}, "mitochondrial function": {"system": "mitochondrial function", "details": "cited from earlier work"}, "red blood cell membranes": {"system": "red blood cell membranes", "details": "cited from earlier work"}, "breast cancer cells": {"system": "breast cancer cells", "details": "cited from earlier work"}, "[4]": {"system": "human cell systems mimicking various disease states", "details": "cited from earlier work"}, "[5]": {"system": "diet-induced obese mice modeling type 2 diabetes", "details": "daily oral, approximately 12 weeks; cited from earlier work"}, "[6]": {"system": "in vivo model of nonalcoholic fatty liver disease", "details": "daily supplementation over 11 weeks; cited from earlier work"}, "[7]": {"details": "Agonist, positive control CP 55940"}}, "data": [{"smiles": "CCCCCCCCCCCCCCC(=O)O[C@H](CC(=O)[O-])C[N+](C)(C)C", "note": "[Pentadecanoylcarnitine, pentadecanoylcarnitine]", "values": [{"measurement": "VEGFR2 biomarker change", "setting": "4H cell system", "result": "−0.11", "unit": "log 10"}, {"measurement": "Tissue Factor biomarker change", "setting": "LPS cell system", "result": "+0.11 log 10"}, {"measurement": "B-Cell Proliferation change", "setting": "SAg cell system", "result": "−0.17", "unit": "log 10"}, {"measurement": "E-Selectin biomarker change", "setting": "SAg cell system", "result": "−0.11", "unit": "log 10"}, {"measurement": "CXCL8/IL-8 biomarker change", "setting": "BE3C cell system", "result": "−0.21", "unit": "log 10"}, {"measurement": "CXCL9/MIG biomarker change", "setting": "BE3C cell system", "result": "−0.60", "unit": "log 10"}, {"measurement": "CXCL10/IP-10 biomarker change", "setting": "BE3C cell system", "result": "−0.10", "unit": "log 10"}, {"measurement": "CXCL11/I-TAC biomarker change", "setting": "BE3C cell system", "result": "−0.54", "unit": "log 10"}, {"measurement": "HLA-DR biomarker change", "setting": "BE3C cell system", "result": "−0.63", "unit": "log 10"}, {"measurement": "IL-1a biomarker change", "setting": "BE3C cell system", "result": "−0.19", "unit": "log 10"}, {"measurement": "MMP-1 biomarker change", "setting": "BE3C cell system", "result": "−0.27", "unit": "log 10"}, {"measurement": "MMP-9 biomarker change", "setting": "BE3C cell system", "result": "−0.34", "unit": "log 10"}, {"measurement": "PAI-1 biomarker change", "setting": "BE3C cell system", "result": "−0.24", "unit": "log 10"}, {"measurement": "tPA biomarker change", "setting": "BE3C cell system", "result": "−0.43", "unit": "log 10"}, {"measurement": "uPA biomarker change", "setting": "BE3C cell system", "result": "−0.28", "unit": "log 10"}, {"measurement": "uPAR biomarker change", "setting": "BE3C cell system", "result": "−0.12", "unit": "log 10"}, {"measurement": "Proliferation change", "setting": "CASM3C cell system", "result": "+0.10 log 10"}, {"measurement": "MMP-1 biomarker change", "setting": "HDF3CGF cell system", "result": "−0.12", "unit": "log 10"}, {"measurement": "CXCL10/IP-10 biomarker change", "setting": "KF3CT cell system", "result": "−0.10", "unit": "log 10"}, {"measurement": "α-SM Actin biomarker change", "setting": "MyoF cell system", "result": "−0.26", "unit": "log 10"}, {"measurement": "MCP-1 biomarker change", "setting": "/IMphg cell system", "result": "−0.25", "unit": "log 10"}, {"measurement": "sIL-10 biomarker change", "setting": "/IMphg cell system", "result": "−0.13", "unit": "log 10"}, {"measurement": "Max Response (%) Compared to Positive Control", "setting": "Cannabinoid receptor 2; Agonist, positive control CP 55940, 1 to 20 μM", "result": 106, "unit": "%"}, {"measurement": "EC50", "setting": "Cannabinoid receptor 2; [7]", "result": 3.2, "unit": "µM"}, {"measurement": "Pharmacological activity at cannabinoid receptor 2", "setting": "Cannabinoid receptor 2", "result": "agonist"}, {"measurement": "Pharmacological activity at cannabinoid receptor 2", "setting": "Cannabinoid receptor 2; listed as pentadecenoyl carnitine", "result": "fully activates"}, {"measurement": "Max Response (%) Compared to Positive Control", "setting": "[1]; 1 to 20 μM", "result": 206, "unit": "%"}, {"measurement": "EC50", "setting": "[1]", "result": 3.9, "unit": "µM"}]}, {"smiles": "CCCCCCCCCCCCCCC(=O)O", "note": "[Pentadecanoic acid (C15:0), Pentadecanoic acid]", "values": [{"measurement": "Emax", "setting": "Cannabinoid receptor 2; Agonist, positive control CP 55940, 1 to 20 μM, read-out: Max Response (%) Compared to Positive Control", "result": 22, "unit": "%"}, {"measurement": "EC50", "setting": "Cannabinoid receptor 2; [7]", "result": "> 20", "unit": "µM"}, {"measurement": "Emax", "setting": "[1]; 1 to 20 μM, read-out: Max Response (%) Compared to Positive Control", "result": 2, "unit": "%"}, {"measurement": "EC50", "setting": "[1]", "result": "> 20", "unit": "µM"}, {"measurement": "PPAR α/δ agonist activity", "setting": "[2]", "result": "dual, partial"}, {"measurement": "AMPK activity", "setting": "[3]", "result": "activator"}, {"measurement": "Effect on mitochondrial function", "setting": "mitochondrial function", "result": "repair"}, {"measurement": "Effect on stability of red blood cell membranes", "setting": "red blood cell membranes", "result": "improve"}, {"measurement": "Effect on proliferation of breast cancer cells", "setting": "breast cancer cells", "result": "decrease"}, {"measurement": "Properties in human cell systems mimicking various disease states", "setting": "[4]", "result": "anti-inflammatory and antifibrotic properties"}, {"measurement": "Body weight gain compared to non-supplemented controls", "setting": "[5]", "result": "lower"}, {"measurement": "Cholesterol compared to non-supplemented controls", "setting": "[5]", "result": "lower"}, {"measurement": "Glucose compared to non-supplemented controls", "setting": "[5]", "result": "lower"}, {"measurement": "Pro-inflammatory cytokines compared to non-supplemented controls", "setting": "[5]", "result": "lower"}, {"measurement": "Anemia", "setting": "[6]", "result": "attenuated"}, {"measurement": "Cholesterol", "setting": "[6]", "result": "lowered"}, {"measurement": "Inflammation", "setting": "[6]", "result": "lowered"}, {"measurement": "Liver fibrosis", "setting": "[6]", "result": "attenuated"}, {"measurement": "Triglycerides", "setting": "[6]", "result": "lowered"}]}]}
